Experimental data: patent US20240018211A1, “EXOSOME COMPRISING OVEREXPRESSED FC RECEPTOR OR PORTION THEREOF, AND METHOD FOR PREPARING SAME” (EXOCOBIO INC, priority 2021, published 2024)

Tested on: MDA-MB-231 human breast cancer cell line
Conditions: MDA-MB-231, 10,000 cells/well; same amount of doxorubicin; exosomes 2.56×10^11 particles/mL; FIG. 11

COc1cccc2c1C(=O)c1c(O)c3c(c(O)c1C2=O)C[C@@](O)(C(=O)CO)C[C@@H]3O[C@H]1C[C@H](N)[C@H](O)[C@H](C)O1 [doxorubicin]
growth of the breast cancer cells: inhibited the growth of the breast cancer cells
